The structures appear in SMILES notation. Activity calls are given as the source filed them. The calls are words filed in the database; no cut-off is given here. Where only a bound is given, the exact number is not on record here.

The IC50 is the midpoint of a concentration-inhibition curve. The EC50 is the concentration giving half of the maximal effect. As usually defined, the IC90 is the point of the concentration-response curve where the effect stands at 90%.

The target in series [1] is Glutamate NMDA receptor. The series is described as follows: (§1) Antagonist activity at NMDA receptor in cerebellar granule neurons assessed as inhibition of glutamate-induced increase in intracellular calcium concentration by fluorometric assay. It counts as functional, cell-based. In general terms: Calcium flux is commonly read through the fluorescence of an indicator in the cells.

In a further series the test system is Feline coronavirus. Type of series: functional, organism-based.
The next series has as its system Human alphaherpesvirus 2. It counts as functional, organism-based.
The species named for another series is Rattus norvegicus. The series is described as follows: Inhibition of [3H]dopamine uptake in Wistar rat striatum synaptosomes at 100 uM by scintillation spectrometry. Type of series: functional, subcellular. Details: scale not given: the % may be the effect or the level left.
In the next series the test system is Human alphaherpesvirus 1. It counts as functional, organism-based.
Series [2] relates to Mammalian orthoreovirus 1. It counts as functional, organism-based.
For a further series, the system named is Sindbis virus. It counts as functional, organism-based.
In series [3] the test system is Vesicular stomatitis virus. It counts as functional, organism-based.
The subject of a further series is Punta Toro virus. Type of series: functional, organism-based.
The target in series [4] is Glutamate NMDA receptor. Briefly: Antagonist activity at NMDA receptor in cerebellar granule neurons assessed as inhibition of NMDA-induced increase in intracellular calcium concentration by fluorometric assay. Type of series: functional, cell-based.
A further series has as its system Coxsackievirus B4. Type of series: functional, organism-based.
The test system of series [5] is Trypanosoma brucei. Briefly: Trypanocidal activity against Trypanosoma brucei 427 blood stream at 5 ug/ml after 48 hrs by hemocytometer. It counts as functional, organism-based.
In series [6] the test system is Respiratory syncytial virus. It counts as functional, organism-based.
The test system of another series is Human respirovirus 3. It counts as functional, organism-based.
The subject of another series is Influenza A virus H3N2. Type of series: functional, organism-based, Influenza A virus (A/Hong Kong/7/1987(H3N2)). As to conditions: MDCK.
The subject of series [7] is Trypanosoma brucei. The series is described as follows: Trypanocidal activity against Trypanosoma brucei 427 blood stream after 48 hrs by hemocytometer. Type of series: functional, organism-based. As to conditions: Trypanosoma brucei, 427, 48 h.
For the next series, the system named is Influenza B virus. It counts as functional, organism-based. To be noted: B/Hong Kong/05/1972, MDCK.
Series [8] is described as follows: Cytotoxicity against MDCK cells by MTS assay. Type of series: cell-based, Canis lupus familiaris. To be noted: dog. For orientation: Tetrazolium assays rely on reduction of a dye to a coloured formazan, in cell work by metabolically active cells.
Series [9] deals with Glutamate NMDA receptor (Rattus norvegicus) (UniProt P35439+Q00959+Q00960+Q00961+Q62645+Q8VHN2+Q9R1M7). The description is as §1. It counts as functional, cell-based.
Another series deals with Influenza A virus. The series is described as follows: microbe, parasite or virus in culture. As to conditions: A/Puerto Rico/8/1934(H1N1), MDCK.

As to `CC12CC3CC1(C)CC3(CN)C2`, the IC50 on Glutamate NMDA receptor [1] is more than 500 µM; on Glutamate NMDA receptor [4], 128 µM. The outcome (in the series on Feline coronavirus; in the series with Human alphaherpesvirus 2; in the series on Human alphaherpesvirus 1; in series [2]; with Sindbis virus; in series [3]) was inactive. For the same compound, the outcome (in the series on Punta Toro virus; with Coxsackievirus B4; with Trypanosoma brucei [5]; in [6]; in the series with Human respirovirus 3) was inactive. For the same compound, the Activity in the series listed under Rattus norvegicus is 39.1%.

In turn, `CC(N)C12CC3CC(CC(C3)C1)C2` (stereo not given) [RIMANTADINE] had an EC50 in the series with Influenza A virus H3N2 of 0.85 µM. The IC90 with Trypanosoma brucei [7] turned out to be 14 µM. The result in the series with Influenza B virus was inactive. In addition, the MCC in series [8] is more than 100 µM.

Turning to `CC(N)C12CC3(C)CC1CC3(C)C2` (stereo not given), the IC50 is 94 µM at Glutamate NMDA receptor [1], 37 µM on Glutamate NMDA receptor [4] and 6.02 µM with Trypanosoma brucei [7]. For the same compound, the result (with Feline coronavirus; in the series with Human alphaherpesvirus 2; with Human alphaherpesvirus 1; in series [2]; in the series with Sindbis virus; in series [3]) was inactive. Also, the outcome (in the series on Punta Toro virus; with Coxsackievirus B4; in series [6]; in the series with Human respirovirus 3) was inactive. Moreover, the Activity in the series filed under Rattus norvegicus turned out to be 72.2%. This compound also displayed an IC90 in the series on Trypanosoma brucei [7] of 9.48 µM.

On to `CC12CC3CC1(C)CC3(CNCc1ccccc1)C2`, for which the outcome (in series [9]; in the series on Feline coronavirus; with Human alphaherpesvirus 2; in the series with Human alphaherpesvirus 1; in [2]; in the series on Sindbis virus) was inactive. Moreover, the outcome (in [3]; in the series on Punta Toro virus; with Coxsackievirus B4; in the series on Trypanosoma brucei [5]; in series [6]; in the series on Human respirovirus 3) was inactive. On Glutamate NMDA receptor [4], the IC50 was 47 µM.

`c1ccc(CNC23CC4CC(CC2C4)C3)cc1`: the IC50 on Glutamate NMDA receptor [1] and at Glutamate NMDA receptor [4] was more than 200 µM throughout. Besides, the result (in the series on Feline coronavirus; with Human alphaherpesvirus 2; in the series on Human alphaherpesvirus 1; in series [2]; in the series on Sindbis virus; in series [3]) was inactive. Besides, the result (in the series with Punta Toro virus; with Coxsackievirus B4; in series [6]; in the series with Human respirovirus 3) was inactive. Besides, the Activity in the series filed under Rattus norvegicus is 31.7%.

With `CN(Cc1ccccc1)C12CC3CC(CC1C3)C2`, the results for the IC50 on Glutamate NMDA receptor [1] and at Glutamate NMDA receptor [4] were more than 500 µM and 36 µM, respectively. Also, the result (with Feline coronavirus; in the series with Human alphaherpesvirus 2; with Human alphaherpesvirus 1; in series [2]; in the series on Sindbis virus; in series [3]) was inactive. Further, the result (in the series on Punta Toro virus; in the series on Coxsackievirus B4; in series [6]; in the series with Human respirovirus 3) was inactive. Also, the Activity in the series filed under Rattus norvegicus came out at 47.2%.

`CN(Cc1ccccc1)CC12CC3CC(CC1C3)C2`: the IC50 on Glutamate NMDA receptor [1] is more than 500 µM; on Glutamate NMDA receptor [4], 178 µM. In addition, the outcome (in the series on Feline coronavirus; in the series with Human alphaherpesvirus 2; with Human alphaherpesvirus 1; in series [2]; with Sindbis virus; in series [3]) was inactive. Moreover, the result (in the series with Punta Toro virus; in the series with Coxsackievirus B4; in [6]; in the series with Human respirovirus 3) was inactive. In addition, the Activity in the series listed under Rattus norvegicus is 45%.

As to `CN(C)C12CC3(C)CC1CC3(C)C2`, the results for the IC50 on Glutamate NMDA receptor [1] and on Glutamate NMDA receptor [4] were 185 µM and 153 µM, respectively. Moreover, the outcome (with Feline coronavirus; in the series on Human alphaherpesvirus 2; in the series on Human alphaherpesvirus 1; in [2]; in the series with Sindbis virus; in series [3]) was inactive. Further, the outcome (with Punta Toro virus; in the series with Coxsackievirus B4; in the series on Trypanosoma brucei [5]; in series [6]; in the series with Human respirovirus 3) was inactive. This compound also displayed an Activity in the series filed under Rattus norvegicus of 75.2%.

In the case of `CN(Cc1ccccc1)CC12CC3(C)CC1CC3(C)C2`, the outcome (in series [9]; with Feline coronavirus; with Human alphaherpesvirus 2; in the series on Human alphaherpesvirus 1; in series [2]; in the series with Sindbis virus) was inactive. Besides, the result (in series [3]; in the series on Punta Toro virus; in the series on Coxsackievirus B4; in series [6]; in the series on Human respirovirus 3) was inactive. Besides, on Glutamate NMDA receptor [4], the IC50 turned out to be 160 µM.

Turning to `NCC12CC3CC(CC1C3)C2`, the IC50 at Glutamate NMDA receptor [1] and on Glutamate NMDA receptor [4] was more than 200 µM each time. In addition, the results for the EC50 in the series on Influenza A virus H3N2 and with Influenza A virus were 52 µM and 36 µM, respectively. In addition, the result (in the series with Feline coronavirus; in the series with Human alphaherpesvirus 2; with Human alphaherpesvirus 1; in [2]; with Sindbis virus; in series [3]) was inactive. Also, the result (with Punta Toro virus; in the series on Influenza B virus; in the series on Coxsackievirus B4; in series [6]; in the series with Human respirovirus 3) was inactive. This compound gave an Activity in the series filed under Rattus norvegicus of 50.1%. The MCC in series [8] was more than 530 µM.

With `NC12CC3CC(CC1C3)C2`, the IC50 on Glutamate NMDA receptor [1] was more than 500 µM; on Glutamate NMDA receptor [4], 92 µM. For the same compound, the EC50 came out at 26.5 µM in the series with Influenza A virus H3N2 and 196 µM with Influenza A virus. Moreover, the Activity in the series listed under Rattus norvegicus is 84.9%. In addition, the result with Influenza B virus was inactive. Further, the MCC in series [8] is more than 575 µM.

For the compound `COc1cccc(CNC23CC4CC(CC2C4)C3)c1`, the results for the IC50 on Glutamate NMDA receptor [1] and on Glutamate NMDA receptor [4] were more than 500 µM and 87 µM, respectively. In addition, the result (in the series on Feline coronavirus; in the series on Human alphaherpesvirus 2; in the series on Human alphaherpesvirus 1; in series [2]; in the series with Sindbis virus; in series [3]) was inactive. Further, the result (in the series with Punta Toro virus; in the series on Coxsackievirus B4; in series [6]; in the series with Human respirovirus 3) was inactive. The compound further had an Activity in the series filed under Rattus norvegicus of 45.8%.

As to `CC12CC3CC1(C)CC3(CN1CCCCC1)C2`, the IC50 on Glutamate NMDA receptor [1] and on Glutamate NMDA receptor [4] was more than 200 µM each time. The outcome (with Feline coronavirus; in the series on Human alphaherpesvirus 2; in the series on Human alphaherpesvirus 1; in [2]; in the series with Sindbis virus; in series [3]) was inactive. In addition, the outcome (with Punta Toro virus; in the series with Coxsackievirus B4; in series [6]; in the series on Human respirovirus 3) was inactive. In the series filed under Rattus norvegicus, this compound yielded an Activity of 39.8%.

For the compound `c1ccc(CNCC23CC4CC(CC2C4)C3)cc1`, the IC50 at Glutamate NMDA receptor [1] was more than 500 µM; at Glutamate NMDA receptor [4] it was 138 µM. For the same compound, the outcome (in the series with Feline coronavirus; with Human alphaherpesvirus 2; in the series with Human alphaherpesvirus 1; in [2]; in the series with Sindbis virus; in series [3]) was inactive. Moreover, the result (in the series on Punta Toro virus; in the series on Coxsackievirus B4; in series [6]; in the series with Human respirovirus 3) was inactive. For the same compound, the Activity in the series listed under Rattus norvegicus amounted to 57.9%.

Regarding `CC12CC3CC1(C)CC3(N)C2`, the IC50 came out at 274 µM at Glutamate NMDA receptor [1] and 23 µM on Glutamate NMDA receptor [4]. For the same compound, the outcome (with Feline coronavirus; with Human alphaherpesvirus 2; with Human alphaherpesvirus 1; in [2]; with Sindbis virus; in series [3]) was inactive. In addition, the result (in the series on Punta Toro virus; with Coxsackievirus B4; in series [6]; in the series on Human respirovirus 3) was inactive. The compound also yielded an Activity in the series filed under Rattus norvegicus of 54.8%.

On to `CN(C)C12CC3CC(CC1C3)C2`, for which the results for the IC50 at Glutamate NMDA receptor [1] and on Glutamate NMDA receptor [4] were more than 500 µM and 173 µM, respectively. Also, the result (in the series on Feline coronavirus; with Human alphaherpesvirus 2; in the series on Human alphaherpesvirus 1; in series [2]; with Sindbis virus; in series [3]) was inactive. Besides, the outcome (in the series with Punta Toro virus; in the series with Coxsackievirus B4; in series [6]; with Human respirovirus 3) was inactive. The same compound came in with an Activity in the series listed under Rattus norvegicus of 71.3%.

The values above are taken from ChEMBL document CHEMBL1151696 (Bioorg Med Chem, 2008).
